In patent publication US8124637B2, “Anthra [1, 2-d]imidazole-6,11-dione derivatives, preparation method and application thereof” (National Defense Medical Center, priority 2010, dated 2012):

Tests used:
SK-MEL-2 = test: NCI 60-cell drug screen, one dose; type: cell-based, human; details: Melanoma SK-MEL-2, 1.00E−5 Molar
Description: (§1) In brief, cellular protein levels were determined after 48 hours of drug exposure by sulforhodamine B colorimetry.
(§2) The screening system in United State National Cancer Institute (NCI) consists of 60 kinds of different human cancer cells, which can be used to assay the growth-inhibiting ability or cell toxicity of a compound against various cancer and tumor at a certain concentration. The NCI had selected 6 compounds synthesized above, and performed cell toxicity assay against 60 kinds of cancer cell strains (Table 2) (DTP Human Tumor Cell Line Screen), in which each compound was assayed at a certain concentration to observe its inhibition ability or cell toxicity against various kinds of cancer and tumor.

EKVX = test: NCI 60-cell drug screen, one dose; type: cell-based, human; details: Non-Small Cell Lung Cancer EKVX, 1.00E−5 Molar
Description: as §1, §2

HOP-92 = test: NCI 60-cell drug screen, one dose; type: cell-based, human; details: Non-Small Cell Lung Cancer HOP-92, 1.00E−5 Molar
Description: as §1, §2

MALME-3M = test: NCI 60-cell drug screen, one dose; type: cell-based, human; details: Melanoma MALME-3M, 1.00E−5 Molar
Description: as §1, §2

HCC-2998 = test: NCI 60-cell drug screen, one dose; type: cell-based, human; details: Colon Cancer HCC-2998, 1.00E−5 Molar
Description: as §1, §2

SK-MEL-28 = test: NCI 60-cell drug screen, one dose; type: cell-based, human; details: Melanoma SK-MEL-28, 1.00E−5 Molar
Description: as §1, §2

OVCAR-4 = test: NCI 60-cell drug screen, one dose; type: cell-based, human; details: Ovarian Cancer OVCAR-4, 1.00E−5 Molar
Description: as §1, §2

A549/ATCC = test: NCI 60-cell drug screen, one dose; type: cell-based, human; details: Non-Small Cell Lung Cancer A549/ATCC, 1.00E−5 Molar
Description: as §1, §2

NCI-H522 = test: NCI 60-cell drug screen, one dose; type: cell-based, human; details: Non-Small Cell Lung Cancer NCI-H522, 1.00E−5 Molar
Description: as §1, §2

SNB-19 = test: NCI 60-cell drug screen, one dose; type: cell-based, human; details: CNS Cancer SNB-19, 1.00E−5 Molar
Description: as §1, §2

SF-295 = test: NCI 60-cell drug screen, one dose; type: cell-based, human; details: CNS Cancer SF-295, 1.00E−5 Molar
Description: as §1, §2

SR = test: NCI 60-cell drug screen, one dose; type: cell-based, human; details: Leukemia SR, 1.00E−5 Molar
Description: as §1, §2

NCI/ADR-RES = test: NCI 60-cell drug screen, one dose; type: cell-based, human; details: Ovarian Cancer NCI/ADR-RES, 1.00E−5 Molar
Description: as §1, §2

CCRF-CEM = test: NCI 60-cell drug screen, one dose; type: cell-based, human; details: Leukemia CCRF-CEM, 1.00E−5 Molar
Description: as §1, §2

BT-549 = test: NCI 60-cell drug screen, one dose; type: cell-based, human; details: Breast Cancer BT-549, 1.00E−5 Molar
Description: as §1, §2

MOLT-4 = test: NCI 60-cell drug screen, one dose; type: cell-based, human; details: Leukemia MOLT-4, 1.00E−5 Molar
Description: as §1, §2

HS 578-T = test: NCI 60-cell drug screen, one dose; type: cell-based, human; details: Breast Cancer HS 578-T, 1.00E−5 Molar
Description: as §1, §2

PC-3 = test: NCI 60-cell drug screen, one dose; type: cell-based, human; details: Prostate Cancer PC-3, 1.00E−5 Molar
Description: as §1, §2

U251 = test: NCI 60-cell drug screen, one dose; type: cell-based, human; details: CNS Cancer U251, 1.00E−5 Molar
Description: as §1, §2

OVCAR-8 = test: NCI 60-cell drug screen, one dose; type: cell-based, human; details: Ovarian Cancer OVCAR-8, 1.00E−5 Molar
Description: as §1, §2

[1] = tested on: hTERT promoter (PhTERT) expression; test: SEAP assay (PhTERT-SEAP reporter, H1299); type: cell-based, human; details: Homo sapiens, NCI-H1299, PhTERT-SEAP (H1299); for activity at 1 µM: read-out: Relative SEAP activity (%); for activity at 10 µM / activity at 100 µM: read-out: Relative SEAP activity (%) (converted)
Summary of the method: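 Stable H1299 clones carrying the hTERT promoter (−3338 to +1) driving SEAP were treated with varying drug amounts for 24 h at 37° C. Heat-treated media (65° C, 10 min) were assayed with 12 mM p-nitrophenyl phosphate in diethanolamine buffer; rate of A405 increase gave SEAP activity.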

[2] = MTT assay (relative cell survival), H1299; details: human, H1299 non-small cell lung cancer cells (PhTERT-SEAP), Relative MTT viability (%)
Description: Further, cells were subjected to MTT assay to compare the relative toxicity or effect of each compound on cell proliferation and activity.
The above-described cells are cultured in a 96-well plate, to which was added with 25 μl MTT solution, and cultured in a 37° C. carbon dioxide incubator for 4 hours. Then, 100 μl Lysis buffer is added and incubated in a 37° C. carbon dioxide incubator overnight. An ELISA reader (Bio-Rad Model 450) is used to read optical density (O.D.) at 550 nm.
After being subjected to different compound treatments for 72 hours, cells were treated with a fixed amount of MTT solution for 28 hours. Then, DMSO was used to dissolve back formazan, an O. D. value was detected at wavelength in the range of 550/670 nm, and calculated accordingly the cell survival rate (as shown in Table 1).

SMILES: CN(CCc1ccccn1)Cc1nc2ccc3c(c2[nH]1)C(=O)c1ccccc1C3=O [CL07, 2-((N-methyl-2-(pyridin-2-yl)ethanamino)methyl)-1H-anthra[1,2-d]imidazole-6,11-dione]
- Growth Percent (SK-MEL-2): 95.03%
- Growth Percent (EKVX): 82.24%
- Growth Percent (HOP-92): 101.41%
- Growth Percent (MALME-3M): 107.00%
- Growth Percent (HCC-2998): 95.82%
- Growth Percent (SK-MEL-28): 97.01%
- Growth Percent (OVCAR-4): 80.99%
- Growth Percent (A549/ATCC): 106.30%
- Growth Percent (NCI-H522): 86.39%
- Growth Percent (SNB-19): 87.77%
- Growth Percent (SF-295): 105.86%
- Growth Percent (SR): 70.10%
- Growth Percent (NCI/ADR-RES): 86.11%
- Growth Percent (CCRF-CEM): 39.91%
- Growth Percent (BT-549): 114.38%
- Growth Percent (MOLT-4): 47.54%
- Growth Percent (HS 578-T): 108.96%
- Growth Percent (PC-3): 99.83%
- Growth Percent (U251): 81.83%
- Growth Percent (OVCAR-8): 80.59%
- activity at 1 µM [1]: 96.5 ± 5.53%
- activity at 10 µM [1]: < 50%
- activity at 100 µM [1]: -3.16%
- viability at 72 h, 1 µM [2]: 104.3 ± 0.96%

SMILES: O=C1c2ccccc2C(=O)c2c1ccc1nc(CN3CCCCC3)[nH]c21 [CL16, 2-((piperidin-1-yl)methyl)-1H-anthra[1,2-d]imidazole-6,11-dione]
- Growth Percent (SK-MEL-2): 113.29%
- Growth Percent (EKVX): 77.14%
- Growth Percent (HOP-92): 80.97%
- Growth Percent (MALME-3M): 119.68%
- Growth Percent (HCC-2998): 82.81%
- Growth Percent (SK-MEL-28): 107.08%
- Growth Percent (OVCAR-4): 65.27%
- Growth Percent (NCI-H522): 84.14%
- Growth Percent (SNB-19): 76.33%
- Growth Percent (SR): 57.64%
- Growth Percent (NCI/ADR-RES): 73.52%
- Growth Percent (CCRF-CEM): 102.47%
- Growth Percent (BT-549): 109.47%
- Growth Percent (MOLT-4): 22.77%
- Growth Percent (HS 578-T): 50.98%
- Growth Percent (PC-3): 81.94%
- Growth Percent (U251): 72.67%
- activity at 1 µM [1]: 75.8 ± 26.9%
- activity at 10 µM [1]: < 50%
- activity at 100 µM [1]: 6.78%
- viability at 72 h, 1 µM [2]: 111 ± 8.66%
- viability at 72 h, 100 µM [2]: 19.6%

SMILES: CN1CCN(Cc2nc3ccc4c(c3[nH]2)C(=O)c2ccccc2C4=O)CC1 [CL24, 2-((4-methylpiperazin-1-yl)methyl)-1H-anthra[1,2-d]imidazole-6,11-dione]
- Growth Percent (SK-MEL-2): 107.95%
- Growth Percent (EKVX): 65.93%
- Growth Percent (HOP-92): 9.17%
- Growth Percent (MALME-3M): 89.63%
- Growth Percent (HCC-2998): 61.90%
- Growth Percent (SK-MEL-28): 96.38%
- Growth Percent (OVCAR-4): 50.98%
- Growth Percent (NCI-H522): 64.61%
- Growth Percent (SNB-19): 65.60%
- Growth Percent (SF-295): 81.61%
- Growth Percent (SR): 21.48%
- Growth Percent (CCRF-CEM): 34.45%
- Growth Percent (BT-549): 100.53%
- Growth Percent (HS 578-T): 51.48%
- Growth Percent (U251): 65.41%
- activity at 1 µM [1]: 106 ± 2.94%
- activity at 10 µM [1]: 23.2%
- activity at 100 µM [1]: 6.23%
- viability at 72 h, 1 µM [2]: 87.4 ± 5.52%
- viability at 72 h, 10 µM [2]: < 50%

SMILES: CCN(CC)Cc1nc2ccc3c(c2[nH]1)C(=O)c1ccccc1C3=O [CL04, 2-((diethylamino)methyl)-1H-anthra[1,2-d]imidazole-6,11-dione]
- Growth Percent (SK-MEL-2): 102.69%
- Growth Percent (EKVX): 73.22%
- Growth Percent (HOP-92): 56.11%
- Growth Percent (MALME-3M): 98.45%
- Growth Percent (HCC-2998): 80.61%
- Growth Percent (SK-MEL-28): 92.41%
- Growth Percent (OVCAR-4): 65.69%
- Growth Percent (NCI-H522): 73.14%
- Growth Percent (SNB-19): 75.06%
- Growth Percent (SF-295): 89.56%
- Growth Percent (SR): 42.38%
- Growth Percent (NCI/ADR-RES): 65.32%
- Growth Percent (CCRF-CEM): 47.88%
- Growth Percent (BT-549): 105.50%
- Growth Percent (HS 578-T): 70.37%
- Growth Percent (U251): 70.77%
- activity at 1 µM [1]: 91.2 ± 4.38%
- activity at 10 µM [1]: < 50%
- activity at 100 µM [1]: 0.13%
- viability at 72 h, 1 µM [2]: 101 ± 6.67%
- viability at 72 h, 10 µM [2]: > 50%

SMILES: O=C1c2ccccc2C(=O)c2c1ccc1nc(CN3CCN(c4ccccc4)CC3)[nH]c21 [CL27, 2-((4-phenylpiperazin-1-yl)methyl)-1H-anthra[1,2-d]imidazole-6,11-dione]
- Growth Percent (SK-MEL-2): 101.39%
- Growth Percent (EKVX): 88.70%
- Growth Percent (HOP-92): 178.61%
- Growth Percent (MALME-3M): 119.09%
- Growth Percent (SK-MEL-28): 127.46%
- Growth Percent (OVCAR-4): 67.72%
- Growth Percent (A549/ATCC): 111.76%
- Growth Percent (NCI-H522): 73.61%
- Growth Percent (SNB-19): 103.62%
- Growth Percent (SF-295): 105.37%
- Growth Percent (SR): 43.11%
- Growth Percent (NCI/ADR-RES): 80.36%
- Growth Percent (CCRF-CEM): 74.42%
- Growth Percent (BT-549): 110.22%
- Growth Percent (MOLT-4): 55.21%
- Growth Percent (HS 578-T): 80.56%
- Growth Percent (PC-3): 77.91%
- Growth Percent (U251): 84.83%
- Growth Percent (OVCAR-8): 80.89%
- activity at 1 µM [1]: 92.23 ± 0.78%
- activity at 10 µM [1]: 76.7%
- activity at 100 µM [1]: 5.83%

SMILES: O=C1c2ccccc2C(=O)c2c1ccc1nc(CN3CCN(c4ccccn4)CC3)[nH]c21 [CL28, 2-((4-(pyridin-2-yl)piperazin-1-yl)methyl)-1H-anthra[1,2-d]imidazole-6,11-dione]
- Growth Percent (SK-MEL-2): 98.34%
- Growth Percent (EKVX): 63.00%
- Growth Percent (HOP-92): 93.87%
- Growth Percent (MALME-3M): 124.77%
- Growth Percent (HCC-2998): 92.28%
- Growth Percent (SK-MEL-28): 114.23%
- Growth Percent (OVCAR-4): 64.57%
- Growth Percent (A549/ATCC): 91.07%
- Growth Percent (NCI-H522): 94.06%
- Growth Percent (SNB-19): 81.00%
- Growth Percent (SF-295): 92.70%
- Growth Percent (NCI/ADR-RES): 81.16%
- Growth Percent (BT-549): 102.42%
- Growth Percent (MOLT-4): 61.76%
- Growth Percent (HS 578-T): 111.04%
- Growth Percent (PC-3): 89.10%
- Growth Percent (U251): 86.28%
- Growth Percent (OVCAR-8): 88.07%
- activity at 1 µM [1]: 91.2 ± 2.69%
- activity at 10 µM [1]: 57.1%
- activity at 100 µM [1]: 1.12%
- viability at 72 h, 1 µM [2]: 90.5 ± 4.34%
- viability at 72 h, 10 µM [2]: 69.5%
- viability at 72 h, 100 µM [2]: 19.8%
